From publication PMC11280475, “Investigation of Stabilized Amorphous Solid Dispersions to Improve Oral Olaparib Absorption” (Pharmaceutics, 2024)
In brackets after ≈: the same amount, converted by molar mass. Read-outs that look alike come from different tables or passages of the source. Blank lines part the entries; values can stand above or below the compound they belong to.

Experiments:
[1] = In vitro dissolution test (USP apparatus II); type: physicochemical; details: 300 mL, 37 °C, 50 rpm, 150 mg OLA equivalent
Description: To assess the in vitro release of OLA from the solid dispersions, a dissolution test was performed under conditions similar to those described in Section 2.3. Briefly, the dissolution media were adjusted to pH 1.2 and pH 6.8 (300 mL each), with the temperature maintained at 37 ± 0.5 °C, and the test was conducted at a paddle speed of 50 rpm. Each sample of the OLA-SD, equivalent to 150 mg of OLA, was immersed in the dissolution media. Additionally, to examine the effect of polymers in the solid dispersion, a parallel dissolution test was conducted with 150 mg each of crystalline OLA and amorphous OLA. As mentioned, the solution was sampled at predetermined times (1, 6, 12, 18, 24, 48, and 72 h) and the concentration of OLA was assessed using an HPLC system. Additionally, after the kinetic dissolution tests in the pH 1.2 solution, the solution was centrifuged, the supernatant was removed, and the remaining OLA-SD residue was dried overnight for 12 h. The crystallinity state of the dried OLA-SD was examined using an X-ray diffractometer. The detailed method is described in Section 2.6.3.

[2] = Saturation solubility of OLA in aqueous solutions; type: physicochemical; details: pH 1.2, pH 4.0, pH 6.8, regardless of pH, 37 °C
Description: The solubility of OLA was evaluated in distilled water (D.W.), pH 1.2, pH 4.0, and pH 6.8 solutions. The pH 1.2 solution was prepared using 0.1 M hydrochloric acid and sodium chloride, while the pH 4.0 solution utilized a 0.05 M sodium acetate buffer solution, and the pH 6.8 solution was made by combining a 0.2 M potassium dihydrogen phosphate solution with a 0.2 M sodium hydroxide solution. To determine the saturation solubility, an excess amount of both crystalline OLA and amorphous OLA, totaling 10 mg each, was added to 1 mL of each solution. The mixtures were vortexed for 10 min and then shaken at 100 rpm in a 37 °C water bath for 72 h. After centrifugation at 13,500 rpm for 10 min, the supernatant was filtered through a 0.45 μm syringe filter to remove insoluble OLA. The resultant solution was diluted tenfold with the HPLC mobile phase, and the concentration of OLA in each solution was measured using the HPLC system mentioned in Section 2.2. Subsequently, to assess the kinetic solubility of OLA, a dissolution test was conducted using 150 mg of both crystalline and amorphous OLA in 900 mL of each aforementioned solution. […] Samples (3 mL) were taken at predetermined times (0.5, 1, 2, 3, 4, 6, 12 h), filtered through a 0.45 μm syringe filter, diluted tenfold with the HPLC mobile phase, and analyzed using the same HPLC system. […]

[3] = Kinetic solubility of OLA in 1% (w/v) polymer solutions; type: physicochemical; details: thermodynamic from solid, amorphous OLA
Description: (§1) The polymers used to select the appropriate polymer for OLA-SD were chosen from those widely utilized in solid dispersions. To select the polymers for the solid dispersion system, the solubility of OLA in 1% (w/v) polymer solutions was assessed. Initially, 10 mg of crystalline OLA was added to 1 mL of each polymer solution, vortexed for 10 min, and then shaken at 100 rpm in a 37 °C water bath for 72 h. This process followed the saturation solubility evaluation method described in Section 2.3. Subsequently, to evaluate the kinetic solubility of OLA, both crystalline and amorphous forms, totaling 10 mg, were added to 10 mL of the selected polymer solutions, based on the results of the OLA saturation solubility tests. After vortexing for 10 min, the samples were shaken under the same conditions. During this 72 h period, samples were collected at predetermined intervals of 1, 6, 12, 24, 48, and 72 h, and the concentration of OLA was measured through HPLC analysis.

[4] = In vivo pharmacokinetic study after oral administration; design: species or system Sprague Dawley (SD) rats; details: rats, 20 mg/kg; for AUC(0-t): read-out: AUC0–24
Description: Male Sprague Dawley (SD) rats (age: 9–10 weeks, weight: 250 ± 20 g) for the in vivo pharmacokinetic study of OLA-SD were purchased from Koatech Co. (Pyeongtaek, Republic of Korea). The rats were acclimatized to standard laboratory conditions (average temperature of 25 ± 2 °C and a 12/12 h light/dark cycle) for one week before the experiment, with unrestricted access to food and drinking water ad libitum. The Institutional Animal Care and Use Committee (IACUC) of Gyeongsang National University (Approval No. GNU-240228-R0049) approved the animal study protocol in accordance with NIH policies and the Animal Welfare Act. The SD rats were randomly divided into four groups, each consisting of six rats. Each rat was anesthetized, and the right femoral artery was cannulated using a polyethylene tube. Crystalline OLA, amorphous OLA, Kollidon VA64-based OLA-SD (F1), and HPMC P645-based OLA-SD (F3) were dispersed in 1 mL of 0.5% carboxymethyl cellulose and administered orally to the rats at a dose of 20 mg/kg. Blood (350 μL) was collected through the cannulated tube at 0.25, 0.5, 1, 2, 3, 6, 9, 12, and 24 h and immediately centrifuged at 13,500 rpm for 15 min at 4 °C. Subsequently, plasma was separated from the supernatant and stored at −20 °C until quantitative analysis. To analyze the plasma samples, 50 μL of internal standard solution (canagliflozin 20 μg/mL in acetonitrile) and 300 μL of acetonitrile were added to 150 μL of plasma. The samples were then mixed in a vortex blender for 3 min for deproteinization and drug extraction. Subsequently, the samples were centrifuged at 13,500 rpm for 15 min at 4 °C. The supernatant was filtered using a 0.2 μm filter and transferred to analytical vials for HPLC analysis. The concentration of OLA in plasma was analyzed using the second HPLC conditions mentioned in Section 2.2. Pharmacokinetic parameters calculated using non-compartmental analysis included the area under the plasma concentration–time curve from 0 to 24 h (AUC0–24), the maximum plasma concentration (Cmax), the time to reach maximum plasma concentration (Tmax), the elimination rate constant (Kel), the half-life (T1/2), and the mean residence time (MRT).
The formula for calculating AUC is as follows: AUC=∑i=1n−1(Ci+Ci+1)/2×[…] where Ci and Ci+1 are the concentration of the drug at consecutive time points, ti and ti+1 are the corresponding time points, and n is the number of measured data points.
The formula for calculating Cmax is as follows: Cmax=max(Ct) where Ct is the concentration of the drug at time t.
The formula for calculating Tmax is Tmax=t at which Ct is maximal
The formula for calculating Kel is […] where C1 and C2 are the concentration of the drug at two consecutive time points during the elimination phase, and t1 and t2 are the corresponding time points.
The formula for calculating T1/2 is T1/2=ln2/Kel where Kel is the elimination rate constant.
The formula for calculating MRT is MRT=AUMC/AUC where AUMC is the area under the moment curve and AUC is the area under the curve.

[5] = cited from earlier work
[6] = Saturation solubility of crystalline OLA in 1% (w/v) polymer solutions; type: physicochemical; details: 37 °C
Description: as §1

[7] = male, Sprague Dawley, rat, plasma, po, mean ± S.D. (n = 6)

dissolution rate ([1]; pH 1.2, 1 h): 43.4 ± 3.3% | dissolution rate ([1]; pH 1.2, 72 h): 28.2 ± 3.9% | dissolution rate ([1]; pH 6.8, 1 h): 44.6 ± 3.1% | dissolution rate ([1]; pH 6.8, 72 h): 27.0 ± 3.0% | saturation solubility ([2]; 72 h): around 100 µg/mL | solubility kinetic at 1 h ([3]; 1% (w/v) HP-β-CD solution, aqueous with cosolvent or surfactant or cyclodextrin, 1% (w/v) HP-β-CD, 37 °C, read-out: kinetic solubility in HP-β-CD at 1 h): 337 ± 29.7 µg/mL (≈ 775 µM) | solubility kinetic at 72 h ([3]; 1% (w/v) HP-β-CD solution, aqueous with cosolvent or surfactant or cyclodextrin, 1% (w/v) HP-β-CD, 37 °C, read-out: kinetic solubility in HP-β-CD at 72 h): 398 ± 10.9 µg/mL (≈ 916 µM) | solubility kinetic at 1 h ([3]; 1% (w/v) HPMC P645 solution, 1% (w/v) HPMC P645, 37 °C, read-out: kinetic solubility in HPMC P645 at 1 h): 247 ± 43.6 µg/mL (≈ 569 µM) | solubility kinetic at 72 h ([3]; 1% (w/v) HPMC P645 solution, 1% (w/v) HPMC P645, 37 °C, read-out: kinetic solubility in HPMC P645 at 72 h): 353 ± 44.2 µg/mL (≈ 813 µM) | solubility kinetic at 1 h ([3]; 1% (w/v) Kollidon VA64 solution, 1% (w/v) Kollidon VA64, 37 °C, read-out: kinetic solubility in Kollidon VA64 at 1 h): 593 ± 72.9 µg/mL (≈ 1360 µM) | solubility kinetic at 72 h ([3]; 1% (w/v) Kollidon VA64 solution, 1% (w/v) Kollidon VA64, 37 °C, read-out: kinetic solubility in Kollidon VA64 at 72 h): 343 ± 6.5 µg/mL (≈ 790 µM) | AUC0–24 [4]: 471 ± 150 ng·h/mL | Cmax [4]: 415 ± 148 ng/mL | increase of AUC0–24 over crystalline OLA ([4]; compared to crystalline OLA): 1.27 fold | increase of Cmax over crystalline OLA ([4]; compared to crystalline OLA): 2.22 fold | AUC0–24 ([4]; mean ± S.D. (n = 6)): 471.40 ± 150.17 ng·h/mL | Cmax ([4]; mean ± S.D. (n = 6)): 415.24 ± 148.20 ng/mL | Kel ([4]; mean ± S.D. (n = 6)): 0.20 ± 0.05 h⁻¹ | MRT ([4]; mean ± S.D. (n = 6)): 4.28 ± 4.52 h | T1/2 ([4]; mean ± S.D. (n = 6)): 3.68 ± 1.04 h | Tmax ([4]; mean ± S.D. (n = 6)): 0.29 ± 0.10 h
Compound: O=C(c1cc(Cc2n[nH]c(=O)c3ccccc23)ccc1F)N1CCN(C(=O)C2CC2)CC1 [Amorphous OLA, olaparib]

solubility at 72 h ([2]; aqueous pH solutions): ~100 µg/mL (≈ 230 µM) | solubility at 72 h ([6]; crystalline OLA in 1% (w/v) HP-β-CD solution, read-out: saturation solubility in HP-β-CD): ~180 µg/mL (≈ 414 µM) | solubility at 72 h ([6]; crystalline OLA in 1% (w/v) polymer solutions other than HP-β-CD, read-out: saturation solubility in most other polymer solutions): < 150 µg/mL | half-life [4, 7]: 4.18 ± 2.27 h | k el [4, 7]: 5.28e-05 s⁻¹ | AUC(0-t) [4, 7]: 370 ± 63.8 ng·h/mL | MRT ([4]; male, Sprague Dawley, rat, plasma, po, mean ± S.D. (n = 6), read-out: MRT): 2.97 ± 0.69 h | AUC(0-t) ([4]; male, Sprague Dawley, rat, plasma, po): 370 ± 63.8 ng·h/mL | Cmax [4]: 187 ± 82.5 ng/mL | Cmax ([4]; mean ± S.D. (n = 6)): 187.31 ± 82.55 ng/mL | Tmax ([4]; mean ± S.D. (n = 6)): 0.63 ± 0.31 h
Compound: O=C(c1cc(Cc2n[nH]c(=O)c3ccccc23)ccc1F)N1CCN(C(=O)C2CC2)CC1 [Crystalline OLA, olaparib]
solubility in aqueous solution ([5]; aqueous solution): approximately 0.1 mg/mL | basic pKa [5]: −1.25 | Biopharmaceutics Classification System (BCS) class ([5]; low solubility and low permeability): class IV
